Results reported in US9499612B2, “Antigen binding constructs” (Glaxo Group Limited, priority 2011, dated 2016).

Key:
[1] = system: human VEGF165 induced blood-retinal breakdown; assay: VEGF induced blood-retinal breakdown: rabbit retinal leakage model; type: in vivo; settings: for % reduction vs vehicle: Table 4B
Protocol: The high (H) and low (L) doses were based upon a molar equivalent dosing to Ranibizumab ([…] ™). The low dose, (L), was one third of the high dose.
In brief, all molecules were buffer exchanged using PD-10 Desalting Columns (GE Healthcare) into 10 mM Histidine HCl, 10% α-αtrehalose dehydrate, 0.01% PolySorbate 80, pH 5.5, and concentrated to the desired concentration using VIVASPIN™ 20, molecular weight cut off 5000 Da, spin concentrations (Sartorius Stedim Biotech), both were used according to manufacturer's instructions.
Ninety-eight (98) GD79B pigmented rabbits were randomly divided into nine (9) groups of ten (10) animals and one (1) group of eight (8) animals (used for KENACORT™ control). Each group was subdivided into 2 groups corresponding to 2 experimental sets. Test items, reference or control items were administered by intravitreal injection (IVT, 50 μL) into the right eyes on Day-7. Left eyes remained untreated and served as a negative control. On Day 0, right eyes were induced for blood retinal barrier (BRB) breakdown with a single intravitreal injection of 500 ng rhVEGF165 (vascular permeability inducer). Sodium fluorescein was intravenously injected to all groups 47 h after the VEGF challenge (Day 2). Within 10 min after the injection of the tracer a retinal angiography was performed on right eye and pictures were taken. Ocular fluorescein contents in the vitreoretinal compartment were measured 1 h later using non-invasive scanning ocular fluorophotometry. A right eye/left eye fluorescein content (AUC) Rt ratio was determined for retinal permeability evaluation. At the end of the evaluation period (Day 2), animals were euthanized and right eyes of all animals were enucleated. […] Fluorescein angiograms were collected for qualitative assessment.
One hundred and forty (140) HY79B pigmented rabbits were randomly divided into eleven (11) groups of twelve (12) animals and one (1) group of eight animals, each group was sub-divided into 4 experimental sets of 3 animals, bar the KENACORT™ treated group, (4 sets of 2 animals), (see Table 15A).

[2] = system: VEGF165 induced proliferation of human umbilical vein endothelial cells; assay: Human Umbilical Cord Endothelial Cell (HUVEC) proliferation assay; type: cell-based
Protocol: The assay measures the extent of endothelial cell proliferation induced by a defined concentration of VEGF165 and the ability of VEGF antagonists to block this effect. HUVECs were seeded at 5000 cells per well in 96-well gelatine-coated plates, leaving outer wells free of cells, and incubated for several hours to permit adherence. Test molecules were assayed at equimolar concentrations (max 3.33×10^−08 M) with a 2-fold serial dilution, each in triplicate. The VEGF165 was prepared in basal medium to achieve 75 ng/ml final concentration. Medium was removed manually from the cell monolayers and 50 μl basal media was added to prevent the cells from drying out. […] Cells were incubated for 72 hrs, after which time the total number of cells was determined using Cell Titre Glo. […]
(§1) PRISM™ using a Sigmodial curve fit, variable slope cf a non-linear regression (variable slope). […] Estimates of the curve maxima and the standard error were analysed using a weighted mixed model analysis of variance, using 1/(standard error)^2, [SE]^2, as a weighting. […]
as §1

[3] = dose H, VEGF induced retinal leakage

Molecule: C[C@]12C=CC(=O)C=C1CC[C@H]1[C@@H]3C[C@@H](O)[C@](O)(C(=O)CO)[C@@]3(C)C[C@H](O)[C@@]12F [KENACORT ™, Triamcinalone, reference compound]
- % reduction vs vehicle ([1]; 2 000 μg/eye): 85%
- % reduction ([1]; Table 15B (ii), 2 000 ug/eye): 80%

Molecule: Ranibizumab [LUCENTIS ™, reference compound]
- % reduction vs vehicle [1, 3]: 82%
- % reduction vs vehicle ([1]; low dose (L)): 78%

Molecule: Bevacizumab [AVASTIN ™, reference compound]
- inhibition of HUVEC proliferation ([2]; Example 8, 75 ng/ml VEGF165, 72 hrs): ~100%
- inhibition of VEGF driven HUVEC proliferation ([2]; Example 18): ~100%
- % reduction vs vehicle [1, 3]: 75%
